Results on seven compounds are retold here after ChEMBL document CHEMBL5625159, “Challenges for the development of mutant isocitrate dehydrogenases 1 inhibitors to treat glioma” (Eur J Med Chem, 2023).

Series [1] deals with T1, Isocitrate dehydrogenase [NADP] cytoplasmic (Homo sapiens, UniProt O75874, R132H). The experiment in a line: Inhibition of N-terminal 6xHis-tagged IDH1 R132H mutant (unknown origin) expressed in Escherichia coli BL21 cells.
Series [2] addresses T1, Isocitrate dehydrogenase [NADP] cytoplasmic. The experiment in a line: Inhibition of IDH1 R132H mutant (unknown origin) expressed in HEK293T cells assessed as inhibition of 2-HG generation measured after 48 hrs by LC-MS/MS analysis. Type of series: cell-based.
Series [3] has as its target T2, Isocitrate dehydrogenase [NADP] cytoplasmic (Homo sapiens, UniProt O75874, R132C). The experiment in a line: Inhibition of IDH1 R132C mutant (unknown origin) expressed in HEK293T cells assessed as inhibition of 2-HG generation measured after 48 hrs by LC-MS/MS analysis. Type of series: cell-based.
For series [4], the target named is T2, Isocitrate dehydrogenase [NADP] cytoplasmic. The experiment in a line: Inhibition of human N-terminal 6His-tagged IDH1 R132C mutant expressed in Escherichia coli Rosetta2 (DE3) in presence of alpha-ketoglutarate and NADPH by fluorescence based biochemical assay.
Series [5] has as its target T1, Isocitrate dehydrogenase [NADP] cytoplasmic. The experiment in a line: Inhibition of wildtype human recombinant IDH1 R132H mutant heterodimer in presence of alpha-ketoglutarate and NADPH by fluorescence based biochemical assay.
Series [6] concerns the target T3, Isocitrate dehydrogenase [NADP] cytoplasmic (Homo sapiens, UniProt O75874). The experiment in a line: Inhibition of N-terminal His-tagged wild type IDH1 (unknown origin).
In series [7] the target is T1, Isocitrate dehydrogenase [NADP] cytoplasmic. The experiment in a line: Inhibition of human recombinant IDH1 R132H mutant expressed in Escherichia coli BL21 (DE3) cells in presence of alpha-ketoglutarate and NADPH by fluorescence based biochemical assay.
Series [8] concerns the target T4, Isocitrate dehydrogenase [NADP], mitochondrial (Homo sapiens, UniProt P48735).
T4 sequence (P48735 whole entry): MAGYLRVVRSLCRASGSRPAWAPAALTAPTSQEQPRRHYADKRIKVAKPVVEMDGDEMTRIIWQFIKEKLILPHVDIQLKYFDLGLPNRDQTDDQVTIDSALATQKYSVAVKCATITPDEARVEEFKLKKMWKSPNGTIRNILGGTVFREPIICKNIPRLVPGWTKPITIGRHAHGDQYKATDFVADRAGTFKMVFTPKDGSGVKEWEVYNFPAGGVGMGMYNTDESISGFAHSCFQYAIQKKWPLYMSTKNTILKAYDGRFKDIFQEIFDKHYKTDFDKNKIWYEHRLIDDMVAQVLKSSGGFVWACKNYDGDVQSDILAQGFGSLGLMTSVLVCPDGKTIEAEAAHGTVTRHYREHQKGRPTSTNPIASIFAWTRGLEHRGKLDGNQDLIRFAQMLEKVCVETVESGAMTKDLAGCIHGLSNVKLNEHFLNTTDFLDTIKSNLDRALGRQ
The experiment in a line: Inhibition of wildtype IDH2 (unknown origin).

Series [9] concerns U-87 MG. The experiment in a line: Antiproliferative activity against human U-87 MG cells harboring IDH1 R132H mutant measured after 72 hrs by MTT assay. Type of series: functional, cell-based, U-87MG ATCC.
The subject of series [10] is HT-1080. The experiment in a line: Antiproliferative activity against human HT-1080 cells harboring IDH1 […] mutant measured after 72 hrs by MTT assay. Conditions: HT-1080, 72 h. Type of series: functional, cell-based.
In series [11] the test system is HT-1080. The experiment in a line: Antiproliferative activity against human HT-1080 cells assessed as cell growth inhibition incubated for 48 hrs by sulforhodamine B assay. Type of series: functional, cell-based. Conditions: HT-1080, 48 h.
The subject of series [12] is U-87 MG. The experiment in a line: Antiproliferative activity against human U-87 MG cells assessed as reduction in cell growth by CCK-8 assay. Type of series: functional, cell-based, U-87MG ATCC.
Series [13] addresses T3, Isocitrate dehydrogenase [NADP] cytoplasmic. The experiment in a line: Inhibition of wild type IDH1 (unknown origin).
Series [14] has as its target T1, Isocitrate dehydrogenase [NADP] cytoplasmic. The experiment in a line: Binding affinity to human recombinant IDH1 R132H mutant expressed in Escherichia coli BL21 (DE3) cells assessed as inhibition constant.
Series [15] concerns the target T2, Isocitrate dehydrogenase [NADP] cytoplasmic. The experiment in a line: Inhibition of C-terminal Hexahistidine-tagged human recombinant IDH1 R132C mutant expressed in Escherichia coli BL21 (DE3) cells assessed as NADPH consumption in presence of alpha KG incubated for 1 hr by MST assay.
Series [16] concerns the target T1, Isocitrate dehydrogenase [NADP] cytoplasmic. The experiment in a line: Inhibition of C-terminal Hexahistidine-tagged human recombinant IDH1 R132H mutant expressed in Escherichia coli BL21 (DE3) cells assessed as NADPH consumption in presence of alpha KG incubated for 1 hr by MST assay.
The target in series [17] is T3, Isocitrate dehydrogenase [NADP] cytoplasmic. The experiment in a line: Inhibition of IDH1 (unknown origin) expressed in Escherichia coli BL21 (DE3) cells using 2OG as substrate preincubated with compound for 2 hrs followed by substrate addition and measured after 1 hrs by spectrophotometric analysis.
Series [18] deals with T2, Isocitrate dehydrogenase [NADP] cytoplasmic. The experiment in a line: Inhibition of IDH1 R132C mutant (unknown origin) expressed in Escherichia coli BL21 (DE3) cells.
Series [19] in a line: Selectivity index, ratio of IC50 for inhibition of wildtype IDH2 (unknown origin) to IC50 for inhibition of IDH2 R140Q mutant (unknown origin).
The target in series [20] is Isocitrate dehydrogenase [NADP], mitochondrial (Homo sapiens, UniProt P48735, R140Q). The experiment in a line: Inhibition of IDH2 R140Q mutant (unknown origin) in the presence of NADPH by fluorescence based analysis.
Series [21] has as its target T2, Isocitrate dehydrogenase [NADP] cytoplasmic. The experiment in a line: Inhibition of human […] IDH1 R132C mutant expressed in Escherichia coli BL21 (DE3) cells incubated for 60 mins by fluorescence based analysis.
Series [22] in a line: Brain to plasma ratio in mouse at 50 mg/kg, iv. Type of series: ADME, organism-based. Conditions: brain and plasma, read-out: BPR.
Series [23] has as its target T3, Isocitrate dehydrogenase [NADP] cytoplasmic. The experiment in a line: Inhibition of human recombinant wildtype IDH1.
The test system of a further series is TF-1. The experiment in a line: Anticancer activity against human TF-1 cells assessed as cell growth inhibition. Type of series: functional, cell-based.
The target of series [24] is T1, Isocitrate dehydrogenase [NADP] cytoplasmic. The experiment in a line: Inhibition of human […] IDH1 R132H mutant expressed in Escherichia coli BL21 (DE3) cells incubated for 60 mins by fluorescence based analysis.
Series [25] has the same target. The experiment in a line: Inhibition of human IDH1 R132H mutant.

T2 sequence (O75874 2-414 R132C limits assumed): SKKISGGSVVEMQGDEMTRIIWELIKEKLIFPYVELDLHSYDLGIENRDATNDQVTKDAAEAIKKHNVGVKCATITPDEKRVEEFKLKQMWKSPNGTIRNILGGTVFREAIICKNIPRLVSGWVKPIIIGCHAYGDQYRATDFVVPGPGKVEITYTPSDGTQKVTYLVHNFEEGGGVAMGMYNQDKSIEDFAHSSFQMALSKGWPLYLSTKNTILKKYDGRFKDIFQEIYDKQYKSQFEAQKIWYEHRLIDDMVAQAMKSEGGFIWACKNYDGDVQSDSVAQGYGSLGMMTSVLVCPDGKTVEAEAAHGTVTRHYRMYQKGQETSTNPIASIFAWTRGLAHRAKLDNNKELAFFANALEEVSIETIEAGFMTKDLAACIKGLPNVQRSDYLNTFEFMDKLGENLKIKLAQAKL
T3 sequence (O75874 whole entry): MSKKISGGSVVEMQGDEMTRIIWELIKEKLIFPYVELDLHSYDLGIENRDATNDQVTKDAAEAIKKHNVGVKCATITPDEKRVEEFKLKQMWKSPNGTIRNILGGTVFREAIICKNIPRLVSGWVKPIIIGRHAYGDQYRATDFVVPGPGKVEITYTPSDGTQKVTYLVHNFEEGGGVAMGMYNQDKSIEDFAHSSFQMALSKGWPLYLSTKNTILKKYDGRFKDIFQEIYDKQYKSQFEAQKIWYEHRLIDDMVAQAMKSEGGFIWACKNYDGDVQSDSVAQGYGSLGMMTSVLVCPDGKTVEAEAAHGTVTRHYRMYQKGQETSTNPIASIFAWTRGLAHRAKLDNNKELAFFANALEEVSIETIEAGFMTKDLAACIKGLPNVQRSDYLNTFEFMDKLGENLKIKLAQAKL
T1 sequence (O75874 2-414 R132H limits assumed): as the sequence (O75874 2-414 R132C limits assumed) above, with C131H counted along it
Chain of Isocitrate dehydrogenase [NADP], mitochondrial (Homo sapiens, UniProt P48735, R140Q) (P48735 40-452 R140Q limits assumed): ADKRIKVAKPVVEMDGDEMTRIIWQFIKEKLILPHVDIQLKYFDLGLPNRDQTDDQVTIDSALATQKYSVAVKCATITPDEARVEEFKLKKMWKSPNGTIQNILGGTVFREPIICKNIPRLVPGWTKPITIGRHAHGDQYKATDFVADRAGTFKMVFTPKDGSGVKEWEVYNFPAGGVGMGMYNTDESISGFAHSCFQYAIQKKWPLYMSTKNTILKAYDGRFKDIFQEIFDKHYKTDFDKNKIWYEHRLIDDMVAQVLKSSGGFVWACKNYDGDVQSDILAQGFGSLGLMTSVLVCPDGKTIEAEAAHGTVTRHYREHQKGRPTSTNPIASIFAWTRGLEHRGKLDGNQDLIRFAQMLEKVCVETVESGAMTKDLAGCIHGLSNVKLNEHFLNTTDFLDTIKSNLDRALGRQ

For the compound `CC(C)(O)CNc1nc(Nc2ccnc(C(F)(F)F)c2)nc(-c2cccc(C(F)(F)F)n2)n1` [ENASIDENIB], the 50% inhibitory concentration (IC50) in series [1] was 677 nM.
Consider `COC(=O)C1CCC2=C(C1=O)C(c1c[nH]c3ccccc13)Nc1ccccc1N2` (configuration not stated), for which the concentration for half-maximal inhibition (IC50) in series [2] was determined as 55.5 µM; in series [3], 65.4 µM.
Regarding `COc1c(C)cc(NC(=O)c2nn(Cc3ccc(F)cc3)c3c2CN(C(=O)c2ccc[nH]2)C[C@@H]3C(N)=O)cc1C`, the concentration for half-maximal inhibition (IC50) stood at 8.8 nM in series [4], 16.6 nM in series [5], 467 nM in series [6] and 15.2 nM in series [7].
On to `N#Cc1ccnc(N2C(=O)CC[C@H]2C(=O)N(c2cncc(F)c2)[C@H](C(=O)NC2CC(F)(F)C2)c2ccccc2Cl)c1` [IVOSIDENIB], for which the IC50 in series [8] is 7.2 µM; in the series with U-87 MG [9], 19 nM; in the series on HT-1080 [10] it was 8 nM; in the series on HT-1080 [11], 8 nM; in the series on U-87 MG [12] it was 19 nM.
As to `C=CC(C)(C)c1cc(/C=C/C(=O)c2ccc(O)cc2)c(OC)cc1O` [LICOAGROCHACONE A], the concentration for half-maximal inhibition (IC50) in series [13] is over 100 µM. For the same compound, in series [14], the inhibition constant (Ki) was 76.9 µM.
For `CCN(CC)CCOc1ccc(/C(=C(\Cl)c2ccccc2)c2ccccc2)cc1` [ZUCLOMIPHENE], the IC50 in series [15] stood at 42.3 µM; in [16], 50.2 µM.
Turning to `Cc1cn(C(=O)c2c(-c3c(Cl)cc(Cl)cc3Cl)noc2C(C)(C)F)c2cccc(/C=C/C(=O)O)c12` [SAFUSIDENIB], the concentration for half-maximal inhibition (IC50) is over 10 µM in [8]; over 10 µM in series [17]; 11 nM in [18]; over 10 µM in [20]; 11 nM in [21]; 180 nM in [23]. Further, the 50% inhibitory concentration (IC50) was found to be 29 nM in the series with TF-1, 8.4 nM in series [24] and 8.4 nM in series [25]. The Ratio IC50 in series [19] is under 0.001. The Kp in series [22] was 0.4.
